Values joined by “and” are separate entries in the source; they are usually repeats but may differ in a detail not shown here. Identical values can stand only once. Like-named read-outs stand apart in the source and are kept apart here.
What was measured:
human GPR17 = target: T1, human GPR17 (Homo sapiens, UniProt Q13304); assay: [35S]GTPγS binding assay; format: biochemical
T1 construct: HA; expressed in transfected cells
Description: [^35S]GTPγS binding assays were carried out as previously described. Briefly, control and astrocytoma 1321N1 cells stably transfected with human pcDNA3.1 (control cells) and human HA-tag GPR17 were homogenized in 5 mM Tris/HCl and 2 mM EDTA (pH 7.4) and centrifuged at 48,000g for 15 min at 4°C. The resulting pellets were washed in 50 mM Tris/HCl and 10 mM MgCl2 (pH 7.4). After protein dosage, aliquots of cell membranes were incubated with increasing concentrations of each investigated ligand (1 pM–10 μM) and GTPγS binding to activated G-proteins was quantified as previously described. Compounds were purchased from two external providers, i.e., Ambinter (Ambinter c/o Greenpharma, Orléans, France http://www.ambinter.com/) and Asinex (http://www.asinex.com/).
For analysis and graphic presentation of [^35S]GTPγS binding data, a nonlinear multipurpose curve fitting computer program (Graph-Pad Prism) was used. All data are presented as the mean ± SEM of three different experiments.
The selected 15 molecules were evaluated in our in-house [^35S]GTPγS functional assay in membranes from cells transfected with human GPR17. […] Moreover, this assay has been already successfully used in the past to measure the ability of both endogenous and novel synthetic compounds to activate GPR17 [25, 31]. All tested molecules were able to potently activate GPR17 with nanomolar/sub-nanomolar affinities. Concentration-response curves obtained for each selected compound are reported in S4 Fig.

[1] = In vivo mouse DMPK study, single 1 mg/kg subcutaneous dose
Description: In vivo DMPK studies were performed as an external service by Aptuit (Verona, Italy) according to standard procedures.
Two compounds were tested in a single dose pharmacokinetic (PK) study in mouse, in which a 1 mg/kg single dose solution (15% Ethanol, 85% PEG400) was administered by subcutaneous injection to naïve CD1 male mice from accredited supplier (n = 3), weighed prior to dosing. Blood samples were collected for 8 time-points (0.25, 0.50, 1, 2, 4, 6, 8, 24 hours).
Plasma samples were prepared and diluted according standard in-house procedures and stored at approximately -20°C, pending analysis. Briefly, blood samples were collected into tubes containing anticoagulant (K3EDTA), stored on ice and centrifuged to prepare plasma within 2 hours of collection. Plasma samples were diluted in Hepes Buffer and deproteinised using CH3CN containing rolipram as internal reference compound for positive ion mode, according standard procedure (20 ng/ml). After vortexing and centrifugation (3000 rpm per 10 min), sample supernatants were transferred in 96 well plate and diluted with water for analysis.
Blood concentrations of the tested compounds and their metabolites were detected through Liquid Chromatography-tandem Mass Spectrometry (QTRAP® 4000 LC-MS/MS System, Sciex). The results for each test compound in plasma were subjected to non-compartmental PK analysis using WinNonlin Phoenix v.6.3 for generation of appropriate PK parameters, reported along with graphical representation of the mean plasma concentration profiles over time.
At 24 hours, animals were sacrificed, and brains were collected and processed for measuring compound concentrations through mass spectrometry.

OPC-DRG co-cultures = assay: In vitro myelination assay; format: cell-based, rat OPCs, mouse DRG; conditions: 10 nM; CTRL 100%; mean ± S.E.M.
Description: OPC-DRG co-cultures were prepared according to a previously described protocol.
DRG explants from E14.5 mice were directly put in culture after being plucked off from embryo spinal cords. Then, they were grown in Neurobasal medium (Life Technologies) in presence of 100 ng/ml nerve growth factor (NGF, Sigma-Aldrich), and in presence of 10 μM fluorodeoxyuridine (FUDR, Sigma-Aldrich) in order to remove all non-neuronal cells.
Purified primary rat OPCs were obtained from mixed glial cultures by orbital shaking for 3 hours. […]
At day 15, OPC/DRG co-cultures treated with either the selected compounds or the vehicle were fixed and treated with rat anti-MBP (Millipore), mouse anti-SMI 31 and mouse anti-SMI 32 (Cell Signaling), followed by the secondary goat anti-rat/-mouse antibody, conjugated to Alexa Fluor 555 or Alexa Fluor 488 (Life Technologies). The quantification of myelin segments was performed following a previously described protocol with ZEISS LSM Image Browser by acquiring 6 random fields of 4–5 coverslips for each experimental condition. […] The amount of myelin per axon (myelination index) was calculated as the ratio between the white pixels area and the green pixels area. […]

CCR4 = target: T2, CCR4 (Homo sapiens, UniProt P51679); assay: Cellular functional assay CCR4; conditions: reference agonist
T2 sequence (P51679 1-360): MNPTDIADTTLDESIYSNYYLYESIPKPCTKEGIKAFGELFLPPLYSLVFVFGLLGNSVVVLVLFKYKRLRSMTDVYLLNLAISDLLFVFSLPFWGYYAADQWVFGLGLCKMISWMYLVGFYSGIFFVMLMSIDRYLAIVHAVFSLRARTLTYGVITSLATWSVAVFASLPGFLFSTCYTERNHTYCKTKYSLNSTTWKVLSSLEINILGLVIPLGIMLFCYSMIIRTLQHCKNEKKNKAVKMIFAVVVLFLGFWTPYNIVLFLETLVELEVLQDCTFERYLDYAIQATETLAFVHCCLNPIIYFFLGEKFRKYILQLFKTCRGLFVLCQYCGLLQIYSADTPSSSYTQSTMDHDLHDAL

CCR8 = CCR8 (Homo sapiens, UniProt P51685); assay: Cellular functional assay CCR8; conditions: reference agonist
Sequence of CCR8 (P51685 whole entry): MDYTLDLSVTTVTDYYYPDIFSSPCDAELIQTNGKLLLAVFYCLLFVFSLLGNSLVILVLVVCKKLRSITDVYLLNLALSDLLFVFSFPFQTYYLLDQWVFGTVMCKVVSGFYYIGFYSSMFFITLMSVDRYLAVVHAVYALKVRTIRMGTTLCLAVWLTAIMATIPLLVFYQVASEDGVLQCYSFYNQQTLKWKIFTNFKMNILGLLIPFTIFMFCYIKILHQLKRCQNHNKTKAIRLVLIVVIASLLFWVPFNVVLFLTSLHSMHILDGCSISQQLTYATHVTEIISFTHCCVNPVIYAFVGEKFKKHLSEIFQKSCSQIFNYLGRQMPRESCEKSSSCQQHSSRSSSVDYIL

[2] = mouse, sc, plasma, 1 mg/kg s.c. single dose, CD1 male mice

T1 sequence (Q13304 29-367): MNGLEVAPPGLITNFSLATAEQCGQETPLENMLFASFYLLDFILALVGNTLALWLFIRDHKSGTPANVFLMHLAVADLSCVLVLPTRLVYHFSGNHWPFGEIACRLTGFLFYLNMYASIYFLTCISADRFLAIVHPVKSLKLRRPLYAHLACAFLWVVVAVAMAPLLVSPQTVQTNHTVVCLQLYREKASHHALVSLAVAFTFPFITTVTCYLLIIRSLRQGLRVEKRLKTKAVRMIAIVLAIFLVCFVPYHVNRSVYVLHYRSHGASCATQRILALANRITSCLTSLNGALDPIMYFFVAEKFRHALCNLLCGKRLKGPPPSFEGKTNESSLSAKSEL

## Cc1cccc(NC(=O)CN2C(=O)CC(c3ccccc3)=Nc3ccccc32)c1C [Compound 18]
Human GPR17; membranes of 1321N1 cells transfected with human GPR17, mean ± SEM of 3 experiments
  EC50: 1.68 ± 0.1 nM
Human GPR17; standard LTC4 50 nM set to 100% (¶ compounds)
  % Emax (ratio vs Emax of the standard): 104.6%
Human GPR17; vs basal, mean ± SEM
  Emax (% vs basal): 147.5 ± 5.8%
[1]; 0.50 h, 1 mg/kg s.c., 1 mg/kg
  Plasma concentration, individual mice: 29.4 ng/mL and 23.0 ng/mL
[1]; 1.00 h, 1 mg/kg s.c., 1 mg/kg
  Plasma concentration, individual mice: 25.5 ng/mL and 30.8 ng/mL
[1]; 2.00 h, 1 mg/kg s.c., 1 mg/kg
  Plasma concentration, individual mice: 6.2 ng/mL and 13.0 ng/mL and 13.3 ng/mL
[1]; 4.00 h, 1 mg/kg s.c., 1 mg/kg
  Plasma concentration, individual mice: 0.7 ng/mL and 2.5 ng/mL and 1.5 ng/mL
[1]; male, CD1, mouse, plasma, sc, 1 mg/kg, 0.50 h, 1 mg/kg s.c., n=3 mice, read-out: Plasma concentration, Mean
  concentration at 0.5 h: 23.3 ng/mL
[1]; male, CD1, mouse, plasma, sc, 1 mg/kg, 0.50 h, 1 mg/kg s.c., read-out: Plasma concentration, individual mice
  concentration at 0.5 h: 17.4 ng/mL
[1]; male, CD1, mouse, plasma, sc, 1 mg/kg, 1.00 h, 1 mg/kg s.c., n=3 mice, read-out: Plasma concentration, Mean
  concentration at 1 h: 25.7 ng/mL
[1]; male, CD1, mouse, plasma, sc, 1 mg/kg, 1.00 h, 1 mg/kg s.c., read-out: Plasma concentration, individual mice
  concentration at 1 h: 20.7 ng/mL
[1]; male, CD1, mouse, plasma, sc, 1 mg/kg, 2.00 h, 1 mg/kg s.c., n=3 mice
  concentration at 2 h: 10.8 ng/mL
[1]; male, CD1, mouse, plasma, sc, 1 mg/kg, 4.00 h, 1 mg/kg s.c., read-out: Plasma concentration, Mean
  concentration at 4 h: 1.6 ng/mL
[1]; male, CD1, mouse, plasma, sc, 1 mg/kg, 6.00 h, 1 mg/kg s.c., read-out: Plasma concentration, individual mice
  concentration at 6 h: 0.8 ng/mL
[1]; male, CD1, mouse, plasma, sc, 1 mg/kg, plasma, 1 mg/kg s.c. single dose, CD1 male mice, read-out: Clast
  concentration at 4 h: 1 ng/mL
[1]; [2]
  AUC(0-t): 46.7 ng·h/mL
  Cmax: 26.4 ng/mL
  Tmax: 60 min
  half-life: 45.5 min
[1]; plasma after s.c. administration in mice
  Metabolites found in vivo: 5
[1]; plasma, 1 mg/kg s.c. single dose, CD1 male mice
  Tlast: 4.00 h
OPC-DRG co-cultures
  Myelination Index: 144.7 ± 14.28%

B1: TARC: chemokine, reference agonist for CCR4 (protein, UniProt Q92583 24-94, looked up)
C-C motif chemokine 17: ARGTNVGRECCLEYFKGAIPLRKLKTWYQTSEDCSRDAIVFVTVQGRAICSDPNNKRVKNAVKYLQSLERS
CCR4
  EC50: 0.34 nM

B2: I-309: chemokine, reference agonist for CCR8 (protein, UniProt P22362 24-96, looked up)
C-C motif chemokine 1: KSMQVPFSRCCFSFAEQEIPLRAILCYRNTSSICSNEGLIFKLKRGKEACALDTVGWVQRHRKMLRHCPSKRK
CCR8
  EC50: 0.72 nM
